# Laboratory results: patent US20050147754A1, “Zirconium complex useful in a CVD method and a thin film preparation method using the complex” (Saes Getters S.p.A., priority 2002, published 2005)
# Experiment: TG-DTA in dry air versus argon gas (oxidative degradation)
# Details: onset of caloric value difference between dry air and argon gas, dDTA/dT, FIG. 3(b)
row,Compound,temperature at which oxidation reaction occurred
1,"CC(C)C(=O)C=C([O][Zr]([O]C(=CC(=O)C(C)C)C(C)C)([O]C(=CC(=O)C(C)C)C(C)C)[O]C(=CC(=O)C(C)C)C(C)C)C(C)C [Zr(DIBM)4, zirconium tetrakis[diisobutyrylmethanate]]",about 130 °C
2,"CC(C)(C)C(=O)C=C(O)C(C)(C)C.CC(C)(C)C(=O)C=C(O)C(C)(C)C.CC(C)(C)C(=O)C=C(O)C(C)(C)C.CC(C)(C)C(=O)C=C(O)C(C)(C)C.[Zr] [Zr(DPM)4, zirconium tetrakis[dipivaloylmethanate]]",about 280 °C
